Assay results: patent US20220151979A1, “COMPOSITION FOR PREVENTION OR TREATMENT OF CARDIOVASCULAR AND METABOLIC DISEASE COMPRISING NORANHYDROICARITIN” (SEOUL NATIONAL UNIVERSITY HOSPITAL, priority 2019, published 2022)

What was measured:
[1] = system: PCSK9 mRNA; experiment: PCSK9 mRNA by RealTime-PCR in HepG2 cells; assay type: cell-based, human; settings: 24 hours
Description: Proprotein convertase subtilisin/kexin type 9 (PCSK9) is an enzyme involved in lipid metabolism and is attached to low-density lipoprotein receptor (LDLR) bound to low-density lipoprotein (LDL) in the liver or other cell membranes to degrade LDLR so that LDLR cannot be regenerated into the cell membrane and cannot absorb extracellular LDL. Therefore, inhibition of PCSK9 production increases LDLR, decreases extracellular LDL, and lowers cholesterol levels, and thus lipid metabolism-related diseases may be alleviated. Therefore, in order to confirm the PCSK9 production inhibitory effect of noranhydroicaritin, HepG2 cells were treated with noranhydroicaritin at various concentrations, and then the relative quantity of PCSK9 mRAN was confirmed through RealTime-PCR.
Specifically, HepG2 cells were suspended at a concentration of 2.5×10^5 cells/mL, and 1 mL thereof was inoculated into each well of a […], and then maintained for one day. The HepG2 cells in the well plate were treated with kaempferol and noranhydroicaritin at concentrations of 2.5 μM, 5 μM, 10 μM, and 20 μM, and incubated for 24 hours, and then RNA was recovered, quantified, and stored at −70° C. Thereafter, cDNA was synthesized from the RNA and the quantity of PCSK9 mRNA was confirmed through RealTime-PCR analysis. The group treated only with DMSO was used as a negative control. […]

[2] = system: PPARγ; experiment: PPARγ expression in HepG2 cells (RealTime-PCR, immunohistochemistry); assay type: cell-based, human
Protocol: In order to confirm the effect of increasing the expression of PPARα and PPARγ of noranhydroicaritin, PCR using PPARα primers and immunohistochemistry targeting PPARα and PPARγ were performed to confirm the expression levels.
Using cDNA synthesized with RNA according to the method of Example 4, the quantities of PPARα mRNA and PPARγ mRNA were confirmed through RealTime-PCR analysis. The group treated only with DMSO was used as a negative control. For immunohistochemistry, HepG2 cells were attached to a slide chamber, then treated with noranhydroicaritin at 20 μM, and incubated. After fixation with formalin, the HepG2 cells were stained with antibodies targeting PPARα and PPARγ, and treated with DAPI to stain nuclei, and the degree of fluorescent expression was confirmed using a confocal microscope.

[3] = system: SREBP 1 promoter; experiment: SREBP 1 promoter-reporter luciferase assay in HEK293T cells; assay type: cell-based, human; settings: pGL4.14-SREBP-transfected HEK293T cells, 18 hours, compared to control
Protocol: (§1) In order to confirm the SREBP gene expression inhibitory effect of noranhydroicaritin, HEK293T cells were treated with noranhydroicaritin and kaempferol, and it was confirmed whether the expression of SREBP was inhibited through a luciferase assay.
(§2) i) A primer was prepared to contain KpnI and XhoI restriction enzyme sites in the SREBP 1 and 2 promoter gene region, and then PCR (polymerase chain reaction) and electrophoresis on an agarose gel were performed to isolate SREBP promoter region DNA. A pGL4.14-[luc2/Hygro] vector containing a firefly luciferase as a reporter gene was treated with the same restriction enzymes (KpnI and XhoI), and then isolated via agarose gel electrophoresis and gel extraction. The purely isolated SREBP promoter gene region and pGL4.14-[luc2/Hygro] vector were reacted for 1 hour using In-fusion DNA ligase (Takara), and then transformed into E. coli to prepare a promoter-reporter construct in which the SREBP promoter was inserted, and this was named pGL4.14-SREBP.
(§3) ii) In order to measure the transcriptional activity of the SREBP promoter gene, HEK293T cells were transfected with pGL4.14-SREBP, and then the luciferase activity of the cell extract was measured. […] Thereafter, the luciferase activity was measured by the method of Example 6. […]

[4] = system: SREBP 2 promoter; experiment: SREBP 2 promoter-reporter luciferase assay in HEK293T cells; assay type: cell-based, human; settings: pGL4.14-SREBP-transfected HEK293T cells, 18 hours, compared to control
Protocol: as §1, §2, §3

[5] = system: PCSK9; experiment: Immunoblot of PCSK9 in HepG2 cells, noranhydroicaritin and statin singly or in combination; assay type: cell-based, human; settings: treated singly
Protocol: The cells aliquoted by the method of Example 7 were treated with noranhydroicaritin or a statin (atorvastatin or rosuvastatin) singly or with noranhydroicaritin and a statin (atorvastatin or rosuvastatin) simultaneously, and the proteins were extracted. On an SDS-polyacrylamide gel, 30 μg of each protein was electrophoresed, and attached to a membrane, and then protein expression levels were confirmed using the respective antibodies: phospho-AMPK, PCSK9, LDLR, and PPARγ.

[6] = system: IL-1B; experiment: Immunofluorescence of IL-1B in carotid artery, mouse arteriosclerosis model; assay type: in vivo; settings: 10 μg/g/day
Protocol: Carotid artery ligation was performed one week after injection of AAV-PCSK9 Virus (1×10^11 IFU/mL) and noranhydroicaritin (10 μg/g/day). After 3 weeks of ligation, it was confirmed whether the atherosclerosis model was completed, and gross plaque imaging and immunofluorescence were performed to confirm the arteriosclerosis inhibitory effect of noranhydroicaritin.
Furthermore, the arteriosclerosis inhibitory effect of noranhydroicaritin was confirmed using immunofluorescence. Specifically, a mouse carotid artery was obtained and fixed in 4% PFA for one day, and then prepared into a block. As the inflammatory response in blood vessels progresses, the arteriosclerosis worsens, and thus the marker […] of macrophages causing arteriosclerotic inflammatory response and TNF-α, IL-1B, and MCP-1, which are pro-inflammatory cytokines secreted when the inflammatory response occurs, were stained. Staining was performed using the antibody for each of CAP1(1:200), PCSK9(1:100), F4/80(1:100), TNF-α(1:100), […], and MCP-1(1:100), then imaging was performed using a confocal microscope, and […] was evaluated.

Compound: CC(C)=CCc1c(O)cc(O)c2c(=O)c(O)c(-c3ccc(O)cc3)oc12 [Noranhydroicaritin, noranhydroicaritin]
- PCSK9 production inhibitory effect (quantity of PCSK9 mRNA) ([1]; 2.5 μM and 5 μM): remarkably superior to that of the control
- PCSK9 production inhibitory effect (quantity of PCSK9 mRNA) ([1]; same concentration as control): superior to that of atorvastatin or rosuvastatin
- expression of PPARγ [2]: increased in a concentration-dependent manner
- SREBP 1 luciferase activity [3]: significantly decreased
- SREBP 2 luciferase activity [4]: significantly decreased
- quantity of PCSK9 (immunoblot) [5]: decreased
- expression of IL-1B (immunofluorescence) [6]: decreased
